Patent US9242995B2, “Isoxazolopyridine orexin receptor antagonists” (MERCK SHARP & DOHME CORP., priority 2011, dated 2016)

The compounds below were run against human orexin-2 receptor (Homo sapiens (Human), UniProt O43614) (assay: radioligand binding assay, hOX2 Bind). Conditions: membranes prepared from CHO cells expressing the OX2 receptor; read-out: hOX2 Bind hKi.
Method: The utility of the compounds in accordance with the present invention as orexin receptor OX1R and/or OX2R antagonists may be readily determined without undue experimentation by methodology well known in the art, including the “FLIPR Ca^2+ Flux Assay” (Okumura et al., Biochem. Biophys. Res. Comm. 280:976-981, 2001). In a typical experiment the OX1 and OX2 receptor antagonistic activity of the compounds of the present invention was determined in accordance with the following experimental method. For intracellular calcium measurements, Chinese hamster ovary (CHO) cells expressing the rat orexin-1 receptor or the human orexin-2 receptor, are grown in Iscove's modified DMEM containing 2 mM L-glutamine, […], 1% hypoxanthine-thymidine supplement, 100 U/ml penicillin, 100 μg/ml streptomycin and 10% heat-inactivated fetal calf serum (FCS). The cells are seeded at 20,000 cells/well into Becton-Dickinson black 384-well clear bottom sterile plates coated with poly-D-lysine. All reagents were from GIBCO-Invitrogen Corp. The seeded plates are incubated overnight at 37° C. and 5% CO2. […] Within the Fluorescent Imaging Plate Reader (FLIPR, Molecular Devices), test compounds are added to the plate in a volume of […] for 5 min and finally 25 μl of agonist is added. Fluorescence is measured for each well at 1 second intervals for 5 minutes and the height of each fluorescence peak is compared to the height of the fluorescence peak induced by 70 pM Ala-6,12 orexin-A with buffer in place of antagonist. […] Alternatively, compound potency can be assessed by a radioligand binding assay (described in Bergman et. al. Bioorg. Med. Chem. Lett. 2008, 18, 1425-1430) in which the inhibition constant (Ki) is determined in membranes prepared from CHO cells expressing either the OX1 or OX2 receptor. The intrinsic orexin receptor antagonist activity of a compound which may be used in the present invention may be determined by these assays. […]

Sequence of human orexin-2 receptor (O43614 whole entry): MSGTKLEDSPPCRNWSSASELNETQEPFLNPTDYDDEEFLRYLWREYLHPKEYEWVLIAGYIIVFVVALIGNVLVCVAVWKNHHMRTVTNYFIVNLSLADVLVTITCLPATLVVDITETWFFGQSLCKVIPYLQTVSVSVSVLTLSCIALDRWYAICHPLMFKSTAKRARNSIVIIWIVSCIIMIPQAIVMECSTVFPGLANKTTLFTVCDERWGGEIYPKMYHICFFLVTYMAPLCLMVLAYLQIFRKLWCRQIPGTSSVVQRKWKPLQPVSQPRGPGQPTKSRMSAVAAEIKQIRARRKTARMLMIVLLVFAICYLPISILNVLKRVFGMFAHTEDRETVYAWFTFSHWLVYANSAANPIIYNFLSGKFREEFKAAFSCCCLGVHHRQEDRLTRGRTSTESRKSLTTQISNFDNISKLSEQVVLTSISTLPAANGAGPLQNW

Row | Compound | Ki [nM]
1 | COc1ccc(CNC(=O)c2cc(-c3cncc(Br)c3)nc3onc(-c4ccccc4)c23)nc1OC [Example 1-8, 6-(5-bromopyridin-3-yl)-N-[(5,6-dimethoxypyridin-2-yl)methyl]-3-phenylisoxazolo[5,4-b] pyridine-4-carboxamide] | 3.8
2 | COc1ccc(CNC(=O)c2cc(-c3cncc(C)c3)nc3onc(-c4ccccc4)c23)cc1OC [Example 1-12, N-(3,4-dimethoxybenzyl)-6-(5-methylpyridin-3-yl)-3-phenylisoxazolo[5,4-b]pyridine-4-carboxamide] | 10.8
3 | COc1cc(C)c(CNC(=O)c2cc(-c3cncc(C)c3)nc3onc(-c4cccs4)c23)nc1OC [Example 1-21, N-[(5,6-dimethoxy-3-methylpyridin-2-yl)methyl]-6-(5-methylpyridin-3-yl)-3-(thiophen-2-yl)isoxazolo[5,4-b]pyridine-4-carboxamide] | 0.7
